Test results reported in PubChem BioAssay AID256 (DTP/NCI, 2004).
Values joined by “and” are separate entries in the source; they are usually repeats but may differ in a detail not shown here. Equal entries are not always repeated. Inconclusive results and toxic doses are left out. The calls were made as follows: active = survival T/C of 150% or more; inactive = T/C below 125% in these data.

System: CD2F1 mice, L1210 leukemia ip, survival T/C
Test: NCI In Vivo Anticancer Drug Screen. Data for tumor model L1210 Leukemia (intraperitoneal) in CD2F1 (CDF1) mice
Conditions: endpoint: mean survival time, higher = longer survival
Method in brief: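 Read-out first: treated-group measurement over vehicle-control measurement, expressed as a ratio. Animals bore a transplanted tumor line and were dosed with compound or vehicle.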

[1] = dose: 100.0 mg/kg/injection, schedule: Q04DX003 (ip), vehicle: saline with Tween-80
[2] = dose: 200.0 mg/kg/injection, schedule: Q04DX003 (ip), vehicle: saline with Tween-80
[3] = dose: 400.0 mg/kg/injection, schedule: Q04DX003 (ip), vehicle: saline with Tween-80
[4] = dose: 100.0 mg/kg/injection, schedule: Q01DX001 (ip), vehicle: saline
[5] = dose: 100.0 mg/kg/injection, schedule: Q01DX009 (ip), vehicle: saline with Tween-80
[6] = dose: 200.0 mg/kg/injection, schedule: Q01DX009 (ip), vehicle: saline with Tween-80
[7] = dose: 400.0 mg/kg/injection, schedule: Q01DX009 (ip), vehicle: saline with Tween-80
[8] = dose: 100.0 mg/kg/injection, schedule: Q01DX001 (ip), vehicle: saline with Tween-80
[9] = dose: 25.0 mg/kg/injection, schedule: Q01DX009 (ip), vehicle: Klucel (hydroxypropylcellulose) (HPC)
[10] = dose: 50.0 mg/kg/injection, schedule: Q01DX009 (ip), vehicle: Klucel (hydroxypropylcellulose) (HPC)
[11] = dose: 100.0 mg/kg/injection, schedule: Q01DX009 (ip), vehicle: Klucel (hydroxypropylcellulose) (HPC)
[12] = dose: 50.0 mg/kg/injection, schedule: Q01DX009 (ip), vehicle: saline with Tween-80

Measured: T/C

CSc1ccnc2ccccc12
inactive: dose: 12.5 mg/kg/injection, schedule: Q01DX009 (ip), vehicle: other 106 % of control | dose: 25.0 mg/kg/injection, schedule: Q01DX009 (ip), vehicle: other 100 % of control | dose: 50.0 mg/kg/injection, schedule: Q01DX009 (ip), vehicle: other 103 % of control

O=S1Cc2ccccc2C1
inactive: [1] 98 % of control

COC(=O)C1C(C(=O)OC)C2C3C4C1C1C2C1C43 (stereo unspecified)
inactive: [1] 102 % of control | [2] 102 % of control | [3] 104 % of control

CC(C)(CC(=O)O)c1ccccc1
inactive: dose: 100.0 mg/kg/injection, schedule: Q04DX003 (ip), vehicle: saline sonified 97 % of control | dose: 200.0 mg/kg/injection, schedule: Q04DX003 (ip), vehicle: saline sonified 101 % of control | dose: 400.0 mg/kg/injection, schedule: Q04DX003 (ip), vehicle: saline sonified 97 % of control

O=C(O)c1cc(-c2ccc(Cl)cc2)nc2c1ccc1ccccc12
inactive: [4] 102 % of control | dose: 200.0 mg/kg/injection, schedule: Q01DX001 (ip), vehicle: saline 97 % of control

O=C1CC(=O)N(C2OC(CO)C(O)C2O)C(=O)N1 (stereo unspecified)
inactive: dose: 12.5 mg/kg/injection, schedule: Q01DX005 (ip), vehicle: water 94 % of control | dose: 25.0 mg/kg/injection, schedule: Q01DX005 (ip), vehicle: water 100 % of control | dose: 50.0 mg/kg/injection, schedule: Q01DX005 (ip), vehicle: water 106 % of control | dose: 100.0 mg/kg/injection, schedule: Q01DX005 (ip), vehicle: water 106 % of control | dose: 200.0 mg/kg/injection, schedule: Q01DX005 (ip), vehicle: water 105 % of control | dose: 400.0 mg/kg/injection, schedule: Q01DX005 (ip), vehicle: water 100 % of control

CC(SC(=N)N)C(=N)N (stereo unspecified)
inactive: dose: 25.0 mg/kg/injection, schedule: Q04DX002 (ip), vehicle: saline 97 % of control | dose: 50.0 mg/kg/injection, schedule: Q04DX002 (ip), vehicle: saline 90 % of control | dose: 100.0 mg/kg/injection, schedule: Q04DX002 (ip), vehicle: saline 105 % of control

CC(C)c1ccc(C(=O)CCCCl)cc1
inactive: [5] 98 % of control | [6] 97 % of control | [7] 97 % of control

O=C(O)C(C(=O)O)C1Cc2cccc3cccc1c23 (stereo unspecified)
inactive: [8] 94 % of control

Nc1nc(N)c(N=Nc2ccc(S(=O)(=O)c3ccc(N=Nc4c(N)nc(N)[nH]c4=O)cc3)cc2)c(=O)[nH]1
inactive: [5] 102 % of control | [6] 92 % of control | [7] 92 % of control

COc1ccc(Nc2nc(N)nc3c2ncn3C2OC(CO)C(O)C2O)cc1 (stereo unspecified)
inactive: dose: 12.5 mg/kg/injection, schedule: Q01DX005 (ip), vehicle: distilled water + Tween-80 96 % of control | dose: 25.0 mg/kg/injection, schedule: Q01DX005 (ip), vehicle: distilled water + Tween-80 98 % of control | dose: 50.0 mg/kg/injection, schedule: Q01DX005 (ip), vehicle: distilled water + Tween-80 104 % of control | dose: 100.0 mg/kg/injection, schedule: Q01DX005 (ip), vehicle: distilled water + Tween-80 111 % of control

CCCCCCCCCCNCCS
inactive: dose: 5.0 mg/kg/injection, schedule: Q01DX009 (ip), vehicle: saline with Tween-80 104 % of control | dose: 20.0 mg/kg/injection, schedule: Q01DX009 (ip), vehicle: saline with Tween-80 93 % of control

[NH2-].[NH2-].[NH2-].[NH2-].[NH2-].[NH2-].[Ru+6]
inactive: dose: 12.5 mg/kg/injection, schedule: Q04DX002 (ip), vehicle: saline 86 % of control

O=C1NC(=O)C2(CCc3ccc(N(CCCl)CCCl)cc32)N1 (stereo unspecified)
active: [9] 154 % of control and 157 % of control
inactive: dose: 6.25 mg/kg/injection, schedule: Q01DX009 (ip), vehicle: Klucel (hydroxypropylcellulose) (HPC) 117 % of control | dose: 6.25 mg/kg/injection, schedule: Q01DX009 (oral), vehicle: saline with Tween-80 96 % of control and 97 % of control | dose: 12.5 mg/kg/injection, schedule: Q01DX009 (oral), vehicle: saline with Tween-80 100 % of control and 105 % of control | dose: 25.0 mg/kg/injection, schedule: Q01DX009 (oral), vehicle: saline with Tween-80 102 % of control and 104 % of control | [10] 122 % of control and 103 % of control | dose: 50.0 mg/kg/injection, schedule: Q01DX009 (oral), vehicle: saline with Tween-80 100 % of control and 104 % of control | [11] 97 % of control | dose: 100.0 mg/kg/injection, schedule: Q01DX009 (oral), vehicle: saline with Tween-80 107 % of control and 109 % of control | dose: 200.0 mg/kg/injection, schedule: Q01DX009 (oral), vehicle: saline with Tween-80 106 % of control and 110 % of control

O=C(CCCCC(=O)N/N=C/c1ccco1)N/N=C/c1ccco1
inactive: [5] 92 % of control | [6] 88 % of control | [7] 93 % of control

Nc1ccccc1CCc1ccccc1N
inactive: [1] 100 % of control | [2] 102 % of control | [3] 93 % of control

CCNc1nc(NC(C)C)nc(OC)n1
inactive: [12] 98 % of control | [5] 93 % of control | dose: 100.0 mg/kg/injection, schedule: Q04DX003 (ip), vehicle: saline 101 % of control | [6] 96 % of control | dose: 200.0 mg/kg/injection, schedule: Q04DX003 (ip), vehicle: saline 103 % of control

C=CCC(C#N)(CC=C)C(=O)OCC
inactive: dose: 50.0 mg/kg/injection, schedule: Q01DX001 (ip), vehicle: Klucel (hydroxypropylcellulose) (HPC) 102 % of control | dose: 100.0 mg/kg/injection, schedule: Q01DX001 (ip), vehicle: Klucel (hydroxypropylcellulose) (HPC) 96 % of control | dose: 200.0 mg/kg/injection, schedule: Q01DX001 (ip), vehicle: Klucel (hydroxypropylcellulose) (HPC) 102 % of control

S=C(Nc1ccccc1)Nc1ccc(NC(=S)Nc2ccccc2)cc1
inactive: [5] 86 % of control | [1] 92 % of control | [2] 92 % of control | [7] 94 % of control | [3] 86 % of control

O=C1NCC(Br)C(=O)N1 (stereo unspecified)
inactive: dose: 6.25 mg/kg/injection, schedule: Q01DX009 (ip), vehicle: saline + Tween-80 + alcohol 102 % of control | dose: 12.5 mg/kg/injection, schedule: Q01DX009 (ip), vehicle: saline + Tween-80 + alcohol 100 % of control and 109 % of control | dose: 12.5 mg/kg/injection, schedule: Q01DX009 (ip), vehicle: saline with Tween-80 93 % of control | dose: 25.0 mg/kg/injection, schedule: Q01DX009 (ip), vehicle: saline + Tween-80 + alcohol 93 % of control and 100 % of control | dose: 25.0 mg/kg/injection, schedule: Q01DX009 (ip), vehicle: saline with Tween-80 96 % of control | dose: 50.0 mg/kg/injection, schedule: Q01DX009 (ip), vehicle: saline + Tween-80 + alcohol 102 % of control | [12] 94 % of control | dose: 100.0 mg/kg/injection, schedule: Q01DX009 (ip), vehicle: saline + Tween-80 + alcohol 101 % of control and 105 % of control | [5] 102 % of control | dose: 200.0 mg/kg/injection, schedule: Q01DX009 (ip), vehicle: saline + Tween-80 + alcohol 113 % of control and 100 % of control | [6] 90 % of control | dose: 400.0 mg/kg/injection, schedule: Q01DX009 (ip), vehicle: saline + Tween-80 + alcohol 86 % of control

COC1SCCCS1
inactive: dose: 12.5 mg/kg/injection, schedule: Q04DX002 (ip), vehicle: saline with Tween-80 97 % of control | dose: 25.0 mg/kg/injection, schedule: Q04DX002 (ip), vehicle: saline with Tween-80 108 % of control | dose: 50.0 mg/kg/injection, schedule: Q04DX002 (ip), vehicle: saline with Tween-80 105 % of control

c1ccc([Si](c2ccccc2)(c2cccs2)c2cccs2)cc1
inactive: [1] 102 % of control | [2] 106 % of control | [3] 114 % of control

O=C(OCC1OC(OC2(COC(=O)c3ccccc3)OC(COC(=O)c3ccccc3)C(OC(=O)c3ccccc3)C2OC(=O)c2ccccc2)C(OC(=O)c2ccccc2)C(OC(=O)c2ccccc2)C1OC(=O)c1ccccc1)c1ccccc1 (stereo unspecified)
inactive: [8] 100 % of control | dose: 200.0 mg/kg/injection, schedule: Q01DX001 (ip), vehicle: saline with Tween-80 100 % of control | dose: 400.0 mg/kg/injection, schedule: Q01DX001 (ip), vehicle: saline with Tween-80 102 % of control

CC1(C)CC(=O)C(C)(C)C(=O)C1
inactive: [4] 100 % of control

COC(=O)/C(=N\NS(=O)(=O)c1ccc(C)cc1)c1ccccc1
inactive: [9] 100 % of control | [10] 102 % of control | [11] 102 % of control | dose: 200.0 mg/kg/injection, schedule: Q01DX009 (ip), vehicle: Klucel (hydroxypropylcellulose) (HPC) 91 % of control | dose: 400.0 mg/kg/injection, schedule: Q01DX009 (ip), vehicle: Klucel (hydroxypropylcellulose) (HPC) 91 % of control
